Assay results published in patent publication US6737547B1, “Compositions containing and methods of using N-acyl-1H-aminoindenes” (Teva Pharmaceutical Industries, Ltd., priority 1998, dated 2004).
Like-named read-outs stand apart in the source and are kept apart here.

Tests used:
mice = experiment: Protection against hypobaric hypoxia in mice (survival time); type: in vivo
Protocol: The apparatus used consisted of two chambers A and B connected by a three-way valve. […] The air in chamber A was evacuated to a pressure of 100 mm Hg. The three way valve was turned to disconnect chamber B from room air and to connect it to chamber A. At this point, the pressure in B fell to 200 mm Hg. Survival of residing mice was determined up to a maximum exposure of 15 minutes, and is defined as the time between onset of hypoxia to cessation of respiration.

Male ICR mice = experiment: Protection against maximal electroshock-induced seizure in mice (MES); type: in vivo; conditions: for protected/total: electroshock 30 min after medication; for ED50: Mus musculus, median effective dose, maximal electroshock, mice, ip, read-out: ED50 (95% confidence limits)
Protocol: Male ICR mice were used. The rodent shocker apparatus consisted of a shock stimulator Type 221 (Hugo Sachs Elektronik, Germany) with a current setting for mice. Thirty minutes after medication with a given agent, given intraperitoneally as a fine slurry in methyl cellulose 0.5% in distilled water, each mouse received an electroshock of 50 mA for 0.2 seconds, applied to the eye, at a maximum of 250 V/300 mA. The ratio of mice protected against seizure in a group of four per dose was determined and used as an indicator of neuroprotective activity.
Protection of mice against seizures induced by electroshock is a widely used model to probe for potential anti-epileptic agents (see, for example, Y. I. Sohn et al., Anticonvulsant properties of diphenylthiohydantoin, Arch. Int. Pharmacodyn. 188, 284-289, 1970).

[1] = test system: guinea-pig ileal preparation; experiment: Decrease of contractile response to intramural electric stimulation in the guinea-pig ileal preparation; conditions: Cavia porcellus
Protocol: A 2 cm-long section of the distal ileum freshly dissected from a CO2-asphyxiated guinea pig is cleaned from adhering tissue and mounted in an organ bath (5 mL) containing Krebs solution constantly aerated with oxygen containing 5% CO2. The initial tension is adjusted at 5 g per strip. Tension is monitored isometrically with a Grass FTC3 force transducer. Intramural electric stimulation is delivered through a platinum electrode from a Grass stimulator model s88, s44 at supramaximal voltage (V) and a frequency of 0.1/s. The preparation develops a rhythmic contractile response at maximal amplitude which is stable over time. Addition of test drugs to the organ bath causes a dose-dependent decrease in contraction amplitude which is stable over 5-8 minutes. The relative decrease in contractile response indicates the relative potency of a given agent in a series.
Blocking or decreasing neural excitability evoked by programmed electric stimulation is another indicator of a compound's potential neuroprotective activity. A convenient test system uses the guinea-pig ileal preparation mounted in an organ bath (see, for example, Eiichi Hayashi et al., European J. Pharmacol 48, 297-307, 1978).

[2] = test system: guinea-pig ileal preparation; experiment: Decrease in contractile response of guinea-pig ileum evoked by the nicotinic agonist DMPP; set-up: Emax: dose or concentration left out as unconfirmed
Protocol: A strip of guinea-pig ileum is mounted in an organ bath, as described in EXAMPLE 10. 1-N,N-dimethyl-4-N-phenylpiperazinium chloride (DMPP) is added at intervals of about 15 minutes in order of increasing dose, to cause bath concentrations in the range of 0.1-10 uM. A brief contraction follows each addition. The amplitude of the contractile response is used to derive a dose-response relationship for DMPP. Usually, a bath concentration of 1 uM DMPP will give 90-100% of the maximal response obtainable in the given preparation. One of two procedures follows this: A dose-response of a test compound is determined in the presence of a fixed concentration of DMPP. This is done by incubating the preparation with a given concentration of the test compound, then challenging it with DMPP at a dose to give 1 uM bath concentration. The procedure is repeated with the next higher concentration of the test compound. In the other procedure, the dose-response of DMPP is determined in the presence of a fixed bath concentration of the test compound, usually 200 uM.
When intramural nerve stimulation occurs, as in the case of electrical stimulation, the contractile effector substance is released from nerve endings by a depolarization wave that propagates along the parasympathetic nerve fiber until its junction with smooth muscle of the ileum. An alternative but not equivalent procedure is stimulation of parasympathetic ganglia by an appropriate nicotinic agonist such as 1-N,N-dimethyl-4-N-phenylpiperazinium chloride (DMPP). Stimulation of parasympathetic ganglia causes a depolarization wave in the post-ganglionic nerve fiber which terminates on the smooth muscle of the ileum, causing release of contractile effector and contraction (see, for example, E. S. Vizi, Acetylcholine release from guinea-pig ileum by parasympathetic ganglion stimulants and gastrin-like polypeptides, Br. J. Pharmacol. 47, 765-77. 1973).

[3] = test system: guinea-pig ileal preparation; experiment: Potentiation of adenosine depression of contractile response, procedure I (in the presence of test compound); conditions: drug present
Protocol: (§1) The test system used is the intramural electrically-stimulated guinea-pig ileal preparation as described in EXAMPLE 10. Adenosine added to the organ bath in rising concentrations in the range 0.1-10 uM causes a dose-dependent decrease in contraction amplitude, with an EC50 of about 1 uM.
In procedure I, the effect of a given concentration of adenosine, usually, 0.2 or 0.4 uM was first determined and related to the full contractile response in the absence of adenosine. […] The amplitude of the contractile response was recorded. Now, adenosine was added at the same dose initially used, and the effect of adenosine in the presence of the test compound was recorded.
(§2) The calculated effect is the product of the responses to each of the two agents when applied separately. The potentiation ratio is defined as (100%found)/(100-% calculated).

[4] = test system: guinea-pig ileal preparation; experiment: Potentiation of adenosine depression of contractile response, procedure II (after exposure to and washout of test compound); conditions: for Mean potentiation ratio ± SEM: drug conc. (uM): 3, 100-400, 2a, 1000, 2, 1000
Protocol: as §1, §2
In all cases, the difference between the calculated and observed response was statistically significant. […] In procedure II, the dose response to adenosine was determined before and after exposure of the preparation to the test drug and washout of the test drug from the organ bath. In this case, significant potentiation of adenosine was observed even though the test drug had been washed out from the organ bath. In fact, the potentiation ratio, as defined earlier, was even higher than found in the presence of the test compounds (Procedure I), reaching very high values.

[5] = Mus musculus, 25 mg/kg, ip, mice, 200 mm Hg, read-out: survival ± SD (survival time as percent of vehicle control)
[6] = Mus musculus, 50 mg/kg, ip, mice, 200 mm Hg, read-out: survival ± SD (survival time as percent of vehicle control)
[7] = Mus musculus, ip, mice, 200 mm Hg, read-out: survival ± SD (survival time as percent of vehicle control)
[8] = calculated from logit plot, contractile response to intramural electric stimulation, read-out: EC50
[9] = Cavia porcellus, calculated from logit plot, inhibiting contractile response to 1 uM DMPP, read-out: EC50
[10] = adenosine 0.2 uM, drug conc. range 40-400 uM
[11] = adenosine 0.4 uM, after exposure and washout, 5, 50-400, 6, 50-400
[12] = Mus musculus, 12.5 mg/kg, ip, mice, 200 mm Hg, read-out: survival ± SD (survival time as percent of vehicle control)
[13] = dose of 25 mg/kg, listed in decreasing order of activity
[14] = adenosine 0.4 uM, drug conc. range (uM): 3, 20-400, 5, 50-200, 6, 25-50
[15] = adenosine 0.4 uM, after exposure and washout, drug conc. range (uM): 3, 100-400, 5, 50-400, 6, 50-400
[16] = Mus musculus, ip, read-out: survival ± SD (survival time as percent of vehicle control)
[17] = adenosine 0.1 uM, drug conc. range 40-400 uM

CC(=O)N[C@@H]1CCc2ccccc21 [Compound 2a, (R)-N-acetyl-1-aminoindan, reference compound]
response vs control in vivo at 25 mg/kg (mice; [5]): 142 ± 94% | response vs control in vivo at 36 mg/kg (mice; Mus musculus, 36 mg/kg, ip, mice, 200 mm Hg, read-out: survival ± SD (survival time as percent of vehicle control)): 110 ± 57% | response vs control in vivo at 50 mg/kg (mice; [6]): 299 ± 69% | response vs control in vivo at 100 mg/kg (mice; [7]): 375 ± 72% | protected/total (Male ICR mice; 25 mg/kg intraperitoneally): 0/4 | protected/total (Male ICR mice; 50 mg/kg intraperitoneally): 3/4 | protected/total (Male ICR mice; 100 mg/kg intraperitoneally): 4/4 | ED50 (Male ICR mice): 42 mg/kg | EC50 [1, 8]: 748 µM | EC50 [2, 9]: 279 µM | reversibility of the depression by rising concentrations of DMPP ([2]; test compound at 200 uM fixed bath concentration, FIG. 8): almost to full restoration | Mean potentiation ratio ± SEM [3, 10]: 1.31 ± 0.05 | potentiation ratio, Max [3, 10]: 1.43 | potentiation ratio, Min [3, 10]: 1.19 | Mean potentiation ratio ± SEM [4, 11]: 1.41 | rate of restoration of the original response to adenosine after washout ([4]; after exposure to and washout of the potentiating agent): fastest

CCCC(CCC)C(=O)[O-].[Na+] [Sodium valproate, sodium valproate, reference compound]
protected/total (Male ICR mice; 280 mg/kg): 1/8 | protected/total (Male ICR mice; 310 mg/kg): 2/8 | protected/total (Male ICR mice; 340 mg/kg): 4/8 | protected/total (Male ICR mice; 400 mg/kg): 6/8 | protected/total (Male ICR mice; 600 mg/kg): 8/8 | ED50 (Male ICR mice): 350 mg/kg

CC(=O)NC1CCc2cc(Cl)ccc21 (stereo not shown) [Compound 13, reference compound]
response vs control in vivo at 50 mg/kg (mice; [6]): 148 ± 77% | response vs control in vivo at 100 mg/kg (mice; [7]): 267 ± 151%

O=CNC1=CCc2ccccc21 [Compound 5, N-Formyl-3-amino-1H-indene]
response vs control in vivo at 12.5 mg/kg (mice; [12]): 248 ± 154% | response vs control in vivo at 25 mg/kg (mice; [5]): 586 ± 253% | response vs control in vivo at 50 mg/kg (mice; [6]): 331 ± 272% | response vs control in vivo at 100 mg/kg (mice; [7]): 489 ± 286% | activity in the hypobaric hypoxia model (in words) (mice; [13]): strong activity | protected/total (Male ICR mice; 50 mg/kg intraperitoneally): 0/4 | protected/total (Male ICR mice; 75 mg/kg intraperitoneally): 1/4 | protected/total (Male ICR mice; 100 mg/kg intraperitoneally): 4/4 | ED50 (Male ICR mice): 79.4 mg/kg | EC50 [1, 8]: 188 µM | EC50 [2, 9]: 34 µM | Mean potentiation ratio ± SEM [3, 14]: 2.19 ± 0.36 | potentiation ratio, Max [3, 14]: 2.60 | potentiation ratio, Min [3, 14]: 1.47 | Mean potentiation ratio ± SEM [4, 11]: 5.55 ± 1.0 | potentiation ratio, Max [4, 15]: 7.28 | potentiation ratio, Min [4, 15]: 3.78 | potentiating effect retained after wash-out from the organ bath (in words) ([4]; guinea pig ileal preparation after wash-out): prolonged potentiating effect

CC(=O)NC1=CCCc2ccccc21 [Compound 4, N-Acetyl-4-amino-1,2-dihydronaphthalene]
response vs control in vivo at 25 mg/kg (mice; [16]): 156 ± 24% | activity in the hypobaric hypoxia model (in words) (mice; dose not given): inactive | protected/total (Male ICR mice; 75 mg/kg intraperitoneally): 0/4 | protected/total (Male ICR mice; 100 mg/kg intraperitoneally): 3/4 | ED50 (Male ICR mice): 92.3 mg/kg | EC50 [1, 8]: 752 µM | EC50 ([2]; Cavia porcellus): 193 µM

O=CNC1=CCc2cc(Cl)ccc21 [Compound 7, N-formyl-6-chloro-3-amino-1H-indene]
response vs control in vivo at 12.5 mg/kg (mice; [12]): 357 ± 299% | response vs control in vivo at 25 mg/kg (mice; [5]): 467 ± 239% | response vs control in vivo at 50 mg/kg (mice; [6]): 893 ± 433% | activity in the hypobaric hypoxia model (in words) (mice; [13]): strong activity

Nc1ncnc2c1ncn2[C@@H]1O[C@H](CO)[C@@H](O)[C@H]1O [Adenosine, adenosine, reference compound]
EC50 ([1]; adenosine added in rising concentrations 0.1-10 uM, electrically-stimulated ileal preparation, read-out: EC50 of decrease in contraction amplitude): ~1 µM

C[N+]1(C)CCN(c2ccccc2)CC1 [DMPP, 1-N,N-dimethyl-4-N-phenylpiperazinium chloride, reference compound]
Emax ([2]; Cavia porcellus, read-out: contractile response as % of the maximal response obtainable): 90 to 100%

CN1C(=O)CN=C(c2ccccc2)c2cc(Cl)ccc21 [Diazepam, diazepam, reference compound]
response vs control in vivo at 10 mg/kg (mice; [16]): 316 ± 78%

COC(=O)NC1=CCc2ccccc21 [Compound 8, N-Methoxycarbonyl-3-amino-1H-indene]
response vs control in vivo at 12.5 mg/kg (mice; [16]): 195 ± 90% | response vs control in vivo at 25 mg/kg (mice; [16]): 402 ± 348% | response vs control in vivo at 50 mg/kg (mice; [16]): 547 ± 327% | activity in the hypobaric hypoxia model (in words) (mice; [13]): strong activity

CC(=O)NC1CCc2ccccc21 (stereo not shown) [Compound 2, N-acetyl-1-aminoindan, reference compound]
response vs control in vivo at 100 mg/kg (mice; [7]): 200% | EC50 [1, 8]: 1840 µM | Mean potentiation ratio ± SEM [3, 17]: 1.35 ± 0.07 | potentiation ratio, Max [3, 17]: 1.49 | potentiation ratio, Min [3, 17]: 1.16 | Mean potentiation ratio ± SEM [3, 10]: 1.24 ± 0.16 | potentiation ratio, Max [3, 10]: 1.51 | potentiation ratio, Min [3, 10]: 0.79 | Mean potentiation ratio ± SEM [4, 11]: 0.87

CCCC(C)C1(CC)C(=O)N=C([O-])NC1=O.[Na+] (stereo not shown) [Nembutal, reference compound]
survival ± SD (survival time as percent of vehicle control) (mice; 40 mg/kg, ip, mice, 200 mm Hg): 253 ± 200% of vehicle control
